The text below walks through data of patent publication US20230129485A1, “SYSTEM AND METHOD FOR DETERMINING MATERIAL PROPERTIES OF MOLECULAR SYSTEMS FROM AN AB-INITIO PARAMETERIZED FORCE-FIELD” (InterX, Inc., priority 2021, published 2023).

SMILES strings stand for the structures.

Series [1] is described as follows: Free energy of hydration predicted with the QM-parameterized force field model (ARROW FF), classical MD and PIMD simulation in a water box. Particulars: for water Arrow MD Error / water Arrow PIMD8 Error: Table 3; for water Arrow MD Error: absolute error of MD hydration free energy vs experiment; for water Arrow PIMD8 Error: absolute error of PIMD8 hydration free energy vs experiment; for Arrow PIMD8 Error: absolute error vs Exp (hydration). From the text: For example, the example QM-parameterized force-field molecular simulation process 400 can use Bennett Acceptance Ratio (BAR) to compute the free energy of hydration/solvation of the molecule in water or any other solvent. In some implementations, the analysis of the molecular dynamics simulations includes analysis, predication, and visualization of ensemble properties of atoms/molecules from atomic and molecular trajectories using the optimized parameters of the QM-parameterized force field model (i.e., the quantum mechanics rule-based reasoning technique) and the QM-parameterized force field model.
In some simulations of the QM-parameterized force field molecular simulation process, the molecules were placed in a water or cyclohexane box of size 32×32×32 Å3. Particle-Mesh Ewald (PME) algorithm was used to compute the electrostatic interactions. A 32×32×32 grid mesh and 5th power spline interpolation order can be used to compute the inverse PME sum. 9 Å cutoffs were used to compute the direct PME sum as well as the exchange and dispersion interactions. Bulk corrections were applied to account for distance cut-off of dispersion interactions. Solvation free energies were computed by decoupling the interactions between the solute and the solvent molecules. Electrostatic, exchange-repulsion and dispersion interactions were switched off simultaneously using a lambda-dependent scaling (a scaling factor power=2 was used) and a soft-coring algorithm (maximal soft-coring radius=1.5 Å, soft-coring radius scaling factor power=1). 15 lambda points unequally spaced (X=0, 0.05, 0.1, 0.2, 0.3, 0.4, 0.5, 0.6, 0.7, 0.75, 0.8, 0.85, 0.9, 0.95, 1.0) were used to decouple the solute-solvent intermolecular interactions.
In some simulations of the QM-parameterized force field molecular simulation process, energy minimization (10,000 steps) using the steepest descent algorithm was initially performed on all the simulation systems. This was followed by a 50 ps equilibration and 1 ns production runs in the isothermal-isobaric ensemble (NPT). […] Pressure was maintained at 1 atm using a MTTK barostat (relaxation time=5 ps). A Multiple Time Step (MTS) algorithm was used to integrate the equations of motion both for the classical and path-integral runs. […] The calculations were performed using the QM-parameterized force field model.
Using the QM-parameterized force field model, the QM-parameterized force field device can compute or predict the solvation free energies using both the Bennett acceptance ratio (BAR) and thermodynamic integration (TI) method with <dH/dλ> values interpolated by cubic splines. […] FIG. 7A illustrates a <dH/dλ> dependence for desolvation of Anthracene in water. FIG. 7B illustrates accumulated statistical errors for TI calculations of AG desolvation of Anthracene in water.

For series [2] the following is noted: Table 3; free energy of hydration, experimental; cited from earlier work.
A short description of series [3]: Free energy of hydration by COSMO implicit solvent model (MolPro ver. 2012). The note with it: absolute error vs Exp (hydration). The protocol:
(§1) Due to unavailability of free energy data for the original COSMO model, the free energies of solvation for the molecule dataset are calculated using MolPro ver. […] The comparisons to other implicit solvent models such as SMD, PCM and COSMO-RS are limited to the overlap of the molecules computed using QM-parameterized force field model. The free energies of hydration as predicted by these implicit solvent models (SMD, PCM) were received.

Series [4] can be described thus: Free energy of hydration by COSMO-RS. The method, then: as §1
The nature of series [5]: Free energy of hydration by Polarizable Continuum Model (PCM). The note with it: absolute error vs Exp (hydration). The protocol:
as §1

Series [6] is described as follows: Free energy of hydration by Solvation Model Dielectric (SMD) implicit solvent model. The note with it: absolute error vs Exp (hydration). The method, then: as §1
The conditions of series [7]: implicit solvent model, values received; cited from earlier work.
The conditions of series [8]: implicit solvent model, values received; cited from earlier work. The source holds these as a separate data set.
The nature of series [9]: CHEX/H2O partition coefficient (log D) predicted with the QM-parameterized force field model (ARROW FF). From the text:
In some simulations, the example QM-parameterized force-field molecular simulation process includes using the functional form of the bonded interactions, with force constants and equilibrium values fitted to QM energies at the MP2/aug-cc-pVTZ level of theory. In some simulations, solvents of water and cyclohexane are selected. Cyclohexane (CHEX) is nonpolar and equilibrates relatively quickly. Reliable experimental data for both CHEX solvation free energies, as well as for the CHEX/H2O partition coefficients are used in these simulations.
In some example simulations, solutes containing neutral chemical functional groups, for example carboxylic acids, alkanes, alkenes, aromatics, aldehydes, ketones, alcohols, amides, esters, thiols, sulfides, disulfides and heterocycles, are used. The simulations were performed independently by four groups using their own respective computational resources and architectures, and then averaged. FIGS. 9A-9C show solvation and hydration free energies predictions of various solutes, using the QM-parameterized force field model, in some embodiments.
The straight line is a line of agreement between experimental and simulated/predicted values, and the gray bar is the range or chemical accuracy. […] The molecules here are a subset of those in a) because only those with experimental values for CHEX solvation can be included.

For `c1ccc2cc3cc4ccccc4cc3cc2c1` [tetracene], in series [1], the “water Arrow MD Error” value was 0.39 kcal/mol, the “water Arrow PIMD8 Error” value was 0.44 kcal/mol and the “Arrow PIMD8 Error” value is given as 0.44 kcal/mol. In series [2], the “water Exp (hydration)” value is -5.5 kcal/mol. Also, the “COSMO/Molpro Error” value in series [3] is 1.43 kcal/mol.
`CC(=O)N(C)C` [DiMethylAcetamide]: the COSMO-RS error in [4] is 0.37 kcal/mol. In addition, in series [3], the “COSMO/Molpro Error” value is listed as 2.31 kcal/mol.
Consider `C1CCCCCC1` [Cycloheptane], for which, in series [1], the “water Arrow MD Error” value is 0.67 kcal/mol, the “water Arrow PIMD8 Error” value was 0.12 kcal/mol and the “Arrow PIMD8 Error” value is given as 0.12 kcal/mol. Further, the “water Exp (hydration)” value in [2] was 0.79 kcal/mol. Also, in series [3], the “COSMO/Molpro Error” value came to 1.32 kcal/mol.
For `CC(C)(C)O` [2-Methyl-2-Propanol], in series [1], the “water Arrow MD Error” value is 0.85 kcal/mol, the “water Arrow PIMD8 Error” value is 0.35 kcal/mol and the “Arrow PIMD8 Error” value is 0.35 kcal/mol. For the same molecule, the COSMO-RS error in series [4] is 0.10 kcal/mol. Moreover, in series [5], the “PCM Error” value was 1.51 kcal/mol. Moreover, in series [3], the “COSMO/Molpro Error” value is listed as 1.31 kcal/mol. Besides, in series [6], the “SMD Error” value was determined as 0.71 kcal/mol.
Consider `c1ccc(-c2ccccc2)cc1` [Biphenyl], for which, in series [1], the “water Arrow MD Error” value was 1.17 kcal/mol, the “water Arrow PIMD8 Error” value was 0.13 kcal/mol and the “Arrow PIMD8 Error” value is given as 0.13 kcal/mol. In [4], this molecule showed a COSMO-RS error of 0.31 kcal/mol. In addition, the “water Exp (hydration)” value in series [2] was -2.66 kcal/mol. For the same molecule, the “COSMO/Molpro Error” value in series [3] amounted to 2.64 kcal/mol.
Turning to `CCCC(=O)O` [butyricacid], in [1], the “water Arrow MD Error” value was 0.25 kcal/mol, the “water Arrow PIMD8 Error” value is 0.40 kcal/mol and the “Arrow PIMD8 Error” value is recorded as 0.40 kcal/mol. This molecule also yielded a COSMO-RS error in series [4] of 0.11 kcal/mol. In addition, the “SMD free energy of hydration” value in series [7] was -5.40 kcal/mol. For the same molecule, the “PCM free energy of hydration” value in series [8] was -4.30 kcal/mol. The “PCM Error” value in [5] was 2.05 kcal/mol. In addition, the “water Exp (hydration)” value in [2] was -6.35 kcal/mol. In series [3], the “COSMO/Molpro Error” value turned out to be 2.19 kcal/mol. In series [6], the “SMD Error” value turned out to be 0.95 kcal/mol.
For the molecule `OC1CCCCC1` [Cyclohexanol], in [1], the “water Arrow MD Error” value was 1.09 kcal/mol, the “water Arrow PIMD8 Error” value was 0.34 kcal/mol and the “Arrow PIMD8 Error” value is 0.34 kcal/mol. In series [4], this molecule had a COSMO-RS error of 0.33 kcal/mol. Moreover, the “water Exp (hydration)” value in series [2] was -5.47 kcal/mol. Besides, the “COSMO/Molpro Error” value in series [3] is on record as 1.03 kcal/mol.
For `C1CCCC1` [Cyclopentane], in [1], the “water Arrow MD Error” value was 0.71 kcal/mol and the “water Arrow PIMD8 Error” value was 0.12 kcal/mol. In series [2], the “water Exp (hydration)” value is 1.20 kcal/mol.
As to `c1cc2ccc3cccc4ccc(c1)c2c34` [pyrene], in series [1], the “water Arrow MD Error” value is 0.45 kcal/mol, the “water Arrow PIMD8 Error” value was 0.01 kcal/mol and the “Arrow PIMD8 Error” value is listed as 0.01 kcal/mol. The “water Exp (hydration)” value in series [2] was -4.52 kcal/mol. Further, in [3], the “COSMO/Molpro Error” value worked out at 1.32 kcal/mol.
`CN` [methylamine]: in series [1], the “water Arrow MD Error” value was 0.49 kcal/mol, the “water Arrow PIMD8 Error” value is 0.16 kcal/mol and the “Arrow PIMD8 Error” value is 0.16 kcal/mol. Moreover, the COSMO-RS error in series [4] is 0.26 kcal/mol. Moreover, the “water Exp (hydration)” value in [2] was -4.55 kcal/mol. In series [3], the “COSMO/Molpro Error” value stood at 1.24 kcal/mol.
For `CCOCC` [DiethylEther], in series [1], the “water Arrow MD Error” value is 0.95 kcal/mol, the “water Arrow PIMD8 Error” value was 0.10 kcal/mol and the “Arrow PIMD8 Error” value was 0.10 kcal/mol. For the same molecule, the “SMD free energy of hydration” value in series [7] was -1.20 kcal/mol. Also, in series [8], the “PCM free energy of hydration” value was -1.90 kcal/mol. Moreover, the “PCM Error” value in [5] is recorded as 0.15 kcal/mol. Moreover, in series [2], the “water Exp (hydration)” value was -1.75 kcal/mol. Also, the “COSMO/Molpro Error” value in [3] came to 2.00 kcal/mol. Also, in [6], the “SMD Error” value is 0.55 kcal/mol.
Take `CC(C)(C)C` [NeoPentane]: in [1], the “water Arrow MD Error” value is 1.05 kcal/mol, the “water Arrow PIMD8 Error” value was 0.12 kcal/mol and the “Arrow PIMD8 Error” value is given as 0.12 kcal/mol. The “SMD free energy of hydration” value in series [7] was 2.20 kcal/mol. Besides, the “PCM free energy of hydration” value in series [8] was -0.30 kcal/mol. In addition, the “PCM Error” value in series [5] amounted to 2.80 kcal/mol. Further, the “water Exp (hydration)” value in series [2] is 2.50 kcal/mol. Moreover, the “COSMO/Molpro Error” value in [3] amounted to 3.25 kcal/mol. Further, in series [6], the “SMD Error” value came out at 0.30 kcal/mol.
With `Cc1ccc(O)cc1` [p-cresol], in series [9], the “log D Arrow MD Error” value is reported as 0.73, the “log D Arrow PIMD Error” value was 0.11, the “logD Arrow MD Error” value is given as 0.73 and the “logD Arrow PIMD Error” value is listed as 0.11.
Consider `CCS` [EthaneThiol], for which, in series [1], the “water Arrow MD Error” value was 0.94 kcal/mol, the “water Arrow PIMD8 Error” value was 0.43 kcal/mol and the “Arrow PIMD8 Error” value is reported as 0.43 kcal/mol. In addition, the “SMD free energy of hydration” value in [7] was -1.00 kcal/mol. The “PCM free energy of hydration” value in series [8] was -2.10 kcal/mol. Further, the “PCM Error” value in [5] was determined as 0.86 kcal/mol. In series [2], the “water Exp (hydration)” value was -1.24 kcal/mol. In addition, the “COSMO/Molpro Error” value in [3] came out at 2.70 kcal/mol. For the same molecule, the “SMD Error” value in series [6] is 0.24 kcal/mol.
As for `CCCOC` [MethylPropylEther], in series [1], the “water Arrow MD Error” value is 0.66 kcal/mol, the “water Arrow PIMD8 Error” value is 0.00 kcal/mol and the “Arrow PIMD8 Error” value was 0.00 kcal/mol. For the same molecule, in series [7], the “SMD free energy of hydration” value was -0.50 kcal/mol. The “PCM free energy of hydration” value in series [8] is -1.80 kcal/mol. In addition, the “PCM Error” value in [5] was found to be 0.14 kcal/mol. In series [2], the “water Exp (hydration)” value is -1.66 kcal/mol. Besides, the “COSMO/Molpro Error” value in series [3] is given as 3.19 kcal/mol. The “SMD Error” value in [6] was 1.16 kcal/mol.
For the molecule `CCSCC` [DiEthylSulfide], in series [1], the “water Arrow MD Error” value is 0.89 kcal/mol, the “water Arrow PIMD8 Error” value was 0.12 kcal/mol and the “Arrow PIMD8 Error” value is given as 0.12 kcal/mol. Further, the “SMD free energy of hydration” value in [7] was -0.20 kcal/mol. Besides, in [8], the “PCM free energy of hydration” value is -2.00 kcal/mol. The “PCM Error” value in series [5] worked out at 0.57 kcal/mol. Moreover, the “water Exp (hydration)” value in series [2] was -1.43 kcal/mol. Besides, the “COSMO/Molpro Error” value in series [3] is listed as 3.37 kcal/mol. Also, the “SMD Error” value in series [6] is recorded as 1.23 kcal/mol.
Regarding `c1ccc2c(c1)ccc1ccccc12` [phenanthrene], in series [1], the “water Arrow MD Error” value was 0.35 kcal/mol, the “water Arrow PIMD8 Error” value was 0.09 kcal/mol and the “Arrow PIMD8 Error” value is reported as 0.09 kcal/mol. Also, the “water Exp (hydration)” value in [2] was -3.88 kcal/mol. Also, the “COSMO/Molpro Error” value in series [3] was found to be 1.97 kcal/mol.
